Results reported in ChEMBL document CHEMBL4673316, “Synthesis and evaluation of a UMI-77-based fluorescent probe for selective detecting Mcl-1 protein and imaging in living cancer cells” (Bioorg Med Chem, 2021).
Active and inactive are the calls of the source. The calls are words filed in the database; no cut-off is given here.

What was measured:
HUVEC = test: Cytotoxicity against HUVEC cells assessed as reduction in cell viability at 5 to 50 uM incubated for 1 hr by CCK8 assay; format: cell-based; details: human, dose 5-50 µM
[1] = target: T1, Induced myeloid leukemia cell differentiation protein Mcl-1 (Homo sapiens, UniProt Q07820); test: Binding affinity to Mcl1 (unknown origin) at 5 uM incubated for 20 mins by fluorescence based assay (reference value: 0.66 %)
T1 sequence (Q07820 whole entry): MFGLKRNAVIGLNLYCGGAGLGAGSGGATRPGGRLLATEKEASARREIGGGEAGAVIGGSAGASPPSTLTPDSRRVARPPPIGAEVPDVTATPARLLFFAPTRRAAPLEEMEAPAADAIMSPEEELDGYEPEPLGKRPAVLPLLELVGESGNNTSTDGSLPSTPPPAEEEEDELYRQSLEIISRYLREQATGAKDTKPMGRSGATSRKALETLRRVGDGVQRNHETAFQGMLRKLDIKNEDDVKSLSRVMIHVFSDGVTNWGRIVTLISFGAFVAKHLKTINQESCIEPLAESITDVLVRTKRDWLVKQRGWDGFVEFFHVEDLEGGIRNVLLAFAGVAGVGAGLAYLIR

Homo sapiens [2] = species on record: Homo sapiens; test: Selectivity index, ratio of binding for BSA (unknown origin) to binding for Mcl-1 (unknown origin)
[3] = Effect on human PC-3 cells with knocked out Mcl1 gene at 5 uM incubated for 30 mins by fluorescence microscopic analysis; format: ADME, cell-based; details: pc-3, 0.5 h
Homo sapiens [4] = species on record: Homo sapiens; test: Selectivity index, ratio of Ki for Bcl-2 (unknown origin) to Ki for Mcl-1 (unknown origin); details: dose 5.0 µM, time 20.0 min
[5] = target: T1, Induced myeloid leukemia cell differentiation protein Mcl-1; test: Inhibition of Mcl-1 (unknown origin) using 5-FAM-Bid-BH3 as substrate incubated for 30 mins followed by substrate addition and measured after 20 mins by fluorescence polarization assay
[6] = target: T1, Induced myeloid leukemia cell differentiation protein Mcl-1; test: Binding affinity to Mcl1 (unknown origin) at 5 uM incubated for 20 mins in presence of 5 to 100 uM UMI-77 by fluorescence based assay
[7] = Drug localization in mitochondria of human PC-3 cells at 5 uM incubated for 30 mins by MitoTracker Red CMXRos dye and Hoechst 33342 nuclear dye based fluorescence microscopic analysis; format: ADME; details: pc-3, 0.5 h
[8] = target: T1, Induced myeloid leukemia cell differentiation protein Mcl-1; test: Binding affinity to Mcl1 in human PC-3 cells at 5 uM incubated for 30 mins by flow cytometry analysis; format: cell-based
[9] = target: T1, Induced myeloid leukemia cell differentiation protein Mcl-1; test: Binding affinity to Mcl1 (unknown origin) at 5 uM incubated for 20 mins by fluorescence based assay relative to control
[10] = target: T1, Induced myeloid leukemia cell differentiation protein Mcl-1; test: Binding affinity to Mcl1 in HUVEC cells at 5 uM incubated for 30 mins by fluorescence microscopy analysis; format: cell-based
PC-3 = test: Cytotoxicity against human PC-3 cells assessed as reduction in cell viability at 5 to 50 uM incubated for 1 hr by CCK8 assay; format: cell-based; details: pc-3, 1 h, dose 5-50 µM
[11] = target: T1, Induced myeloid leukemia cell differentiation protein Mcl-1; test: Binding affinity to Mcl1 in human PC-3 cells at 5 uM incubated for 30 mins in presence of UMI-77 by fluorescence microscopy analysis; format: cell-based
[12] = target: T1, Induced myeloid leukemia cell differentiation protein Mcl-1; test: Binding affinity to Mcl1 in human PC-3 cells at 5 uM incubated for 30 mins by fluorescence microscopy analysis; format: cell-based
[13] = target: Apoptosis regulator Bcl-2 (Homo sapiens, UniProt P10415); test: Inhibition of Bcl2 (unknown origin) using 5-FAM-Bid-BH3 as substrate incubated for 30 mins followed by substrate addition and measured after 20 mins by fluorescence polarization assay
Apoptosis regulator Bcl-2, sequence (P10415 whole entry): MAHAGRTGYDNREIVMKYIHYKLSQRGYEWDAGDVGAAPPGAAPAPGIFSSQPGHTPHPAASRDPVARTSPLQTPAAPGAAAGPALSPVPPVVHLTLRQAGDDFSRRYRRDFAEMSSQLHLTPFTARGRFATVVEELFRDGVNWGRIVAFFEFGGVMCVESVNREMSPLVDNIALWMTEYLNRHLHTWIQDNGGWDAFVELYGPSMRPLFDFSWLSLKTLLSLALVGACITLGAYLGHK

[14] = target: T1, Induced myeloid leukemia cell differentiation protein Mcl-1; test: Binding affinity to Mcl1 (unknown origin) at 5 uM incubated for 20 mins by fluorescence based assay
[15] = target: T1, Induced myeloid leukemia cell differentiation protein Mcl-1; test: Binding affinity to Mcl1 in human PC-3 cells at 5 uM incubated for 30 mins in presence of UMI-77 by flow cytometry analysis; format: cell-based

CN(C)c1cccc2c(S(=O)(=O)Nc3cc(SCC(=O)O)c(O)c4ccccc34)cccc12
Activity (HUVEC): Non-Toxic | Activity [1]: 6.47% | Ratio (Homo sapiens [2]): 2 | Activity [3]: Non-Toxic | Ratio Ki (Homo sapiens [4]): 5 | Ki [5]: 120 nM | Activity [6]: inactive | Drug uptake [7]: Active | Activity [8]: Active | fold change (FC) [9]: 5 | Activity [10]: inactive | Activity (PC-3): Non-Toxic | Activity [11]: inactive | Activity [12]: Active | Ki [13]: 2200 nM | Activity [14]: Active | Activity [15]: inactive

O=C(O)CSc1cc(NS(=O)(=O)c2ccc(Br)cc2)c2ccccc2c1O
Ki [5]: 210 nM | Ki [13]: 11000 nM
